# Values quoted from earlier work as cited in paper PMC7327225 (Hepatology Communications, 2020).
# Tested on: β1‐containing AMPK trimers
# Details: explains failure to activate AMPK in muscle
smiles,measurement,value
O=C(O)c1c[nH]c2cc(Cl)c(-c3ccc(C4(O)CCC4)cc3)cc12 [PF‐06409577],AMPK isoform selectivity,selectivity toward β1‐containing AMPK trimers
